Data as given in US20110142842A1, “POLYPEPTIDES” (Medinnova AS, priority 2007, published 2011).
Values joined by “and” are separate entries in the source; they are usually repeats but may differ in a detail not shown here. Equal entries are not always repeated. Where two headings read alike, the source gives them in different places.

Key:
[1] = test system: autologous responder cells (monocyte-depleted PBMC) from HLA-A*0201-negative donors; test: Induction of pentamer positive CD8+ T cells by peptide-pulsed HLA-A*0201-transfected moDC (Example 8); type: cell-based, human; details: for Day 12 % pent+/CD8+: day 12 of co-culture; for Day 19 % pent+/CD8+: day 19 of co-culture, after restimulation; for Day 12 Donors / Day 19 Donors: donors with positive response / donors tested
Experimental: MoDC transfected with HLA-A*0201 mRNA were harvested 18 hours after transfection and resuspended in 1-2 ml of serum-free DC-medium containing 50 μg/ml peptide, such as MART-1 or peptide #19. The cells were incubated at 37° C., 5% CO2 for 4 hours, then washed once in serum-free RPMI.
Stimulator and responder cells were seeded at a stimulator to responder (S:R) ratio of 1:10, with 3.0×10^6 responders per well in serum-free DC medium containing 10 ng/ml IL-7 (PeproTech EC Ltd.), 50 pg/ml IL-12 (PeproTech EC Ltd.), and PPD at 1 μg/ml.
On day 12 the responder cells were harvested and analyzed for the presence of pentamer positive cells. The cells were either sorted or restimulated.
Restimulation was done with autologous EBV-LCL transfected with HLA-A*0201 mRNA 12-24 hours prior to stimulation, harvested and resuspended in 1-2 ml of serum-free X-Vivo 20 (Cambrex) containing the same peptide as added on day 0 at 20 μg/ml, and incubated for 4 hours at 37° C., 5% CO2. Following incubation, the EBV-LCL were washed once in serum-free RPMI.
From day 12 of co-culture with stimulator cells, the responders were harvested, counted and analyzed for the presence of pentamer positive cells weekly. The responder cells were either restimulated, as described above, or the pentamer positive cells were sorted and expanded as described below.
Monocyte-derived dendritic cells (moDC) from HLA-A*0201-negative donors were transfected with HLA-A*0201 mRNA after maturation. 18-24 hours post-transfection the cells were pulsed with the peptides indicated in Table 2 for four hours, before co-culturing them with autologous responder cells (monocyte-depleted PBMC). On day 12 and day 19 and in some cases at day 26 of co-culture, the cells were harvested, stained with relevant peptide-MHC-pentamer and analyzed by flow cytometry. The percentage of pentamer positive cells was calculated by dividing the number of pentamer positive cells by the number of CD8+ cells. On day 12 and day 19, the cells were restimulated with autologous EBV-cells that were transfected with HLA-A*0201 mRNA and loaded for four hours with the relevant peptides indicated in Table 2.

[2] = test system: CD8+ T cells from HLA-A*0201 negative donors; test: Induction of allo-restricted pentamer+ T cells by peptide-pulsed A2-moDC (Example 9); type: cell-based, human; details: three donors respectively, 19 days of culture
Experimental: Mature moDCs were harvested 18 hours after transfection with HLA-A*0201 mRNA, pulsed with 50 μg/ml MART-1 peptide or CD339-17 peptide for 4 hours, washed and co-cultured with thawed, non-adherent cells (see above) at a ratio of 1:10 in CellGro DC medium in the presence of 10 ng/ml IL-7 (PeproTech EC Ltd.) and 50 pg/ml IL-12 (PeproTech EC Ltd.), with the addition of 10 ng/ml IL-7 on day 7. Cells were harvested day 12 and analyzed for the presence of pentamer^+ cells. The co-cultures stimulated with the CD339-17 peptide were re-stimulated on day 12 with HLA-A*0201 transfected autologous EBV-LCL for an additional 7 days before harvest.
(§1) Co-cultured cells were harvested and stained with A2/MART-1 pentamer or A2/CD33 pentamer, fluorotag and anti-CD8 according to the manufacturers' instructions. Sorting was performed by flow cytometry (FACS Aria Cell sorter, BD Biosciences, San Jose, Calif.) or by magnetic beads to a purity of >98%. Pentamer^+ cells labelled with fluorotag conjugated to PE were isolated using MACS Anti-PE MicroBeads (Miltenyi Biotec, Bergisch Gladbach, Germany) followed by separation over two subsequent MACS MS Columns (Miltenyi Biotec).

HLA-A*0201 = HLA-A*0201 (Homo sapiens, UniProt P04439, D140Y/D185E/D98H/E176V/E277Q/G131W/G231S/I119V/I121R/I166T/I218V/L300P/L318F/N151K/N90K/P208A/P217A/Q86G/Q94H/R138H/R169H/T345S); test: REVEAL MHC molecule binding assay (ProImmune)
[3] = test system: CD8+ T cells from HLA-A*0201 negative donors; test: Induction of A2/CD20 pentamer+ T cells by HLA-A*0201-transfected peptide-pulsed moDC (Example 10); type: cell-based, human
Experimental: Mature moDCs were harvested 18 hours after transfection with HLA-A*0201 mRNA (HLA-A*0201 negative donors), or left untransfected (HLA-A*0201 positive donors), pulsed with 50 μg/ml peptide for 4 hours, irradiated (25Gy), washed and co-cultured with thawed, autologous, non-adherent cells at a ratio of 1:10 in CeliGro DC medium in the presence of 10 ng/ml IL-7 (PeproTech EC Ltd.), 50 pg/ml IL-12 (PeproTech EC Ltd.) and 1 μg/ml purified protein derivative-1 (gift from Prof. L. Sollid's lab, Rikshospitalet, Oslo) with the addition of 10 ng/ml IL-7 on day 7. Cells were analyzed for the presence of pentamer^+ cells, harvested and re-stimulated on day 12 with HLA-A*0201-transfected, peptide-pulsed autologous EBV-LCL. Cells were co-cultured in X-vivo 20 (Lonza, Verviers, Belgium) with 5% pooled human serum, 10 U/ml IL-2 (R&D systems, Minneapolis, Minn.) was added on day 14 and the cells harvested for cell sorting day 19.
as §1, with “Harvested” for “Co-cultured”, “were” for “were harvested and”, “A2/CD20” for “A2/MART-1 pentamer or A2/CD33”, “anti-PE” for “Anti-PE”

[4] = test system: myelo-monocytic leukemia cell line THP-1; test: IFN-γ production and CD107a/b mobilization, peptide-loaded targets; type: cell-based, human; details: THP-1 loaded with peptide and washed, p=0.016, n=4
[5] = day 26 per footnote c, printed in Day 19 column

Substance | Day 12 % pent+/CD8+ [1] [%] | Day 19 % pent+/CD8+ [1] | Day 12 Donors [1] | Day 19 Donors [1] | further results
ALAVISFLL (homo sapiens) [Peptide 114, from CD7] | 0 | 0% | 0/2 | 0/2 | 
ALPAALAVI (homo sapiens) [Peptide 127, from CD7] | 0 | 0.04% | 0/2 | 1/2 | 
ALYDKTKRI (homo sapiens) [Peptide 115] | 0 | 0% | 0/2 | 0/2 | 
CD339-17: peptide derived from the CD33 antigen, amino acid sequence 9-17, HLA-A*0201-binding candidate (LLWAGALAM; UniProt P20138 9-17, looked up, fragment) |  |  |  |  | frequencies of pentamer+ cells [2]: 0.13% and 0.32% and 0.55%
FLDCQIHRV (homo sapiens) [Peptide 7, from CD127] | 0 | 0% | 0/2 | 0/2 | 
FLLLTISLL (homo sapiens) [Peptide 88, from CD52] | 0 | 0.08% and 0% | 0/2 and 0/3 | 2/3 and 0/2 | 
FLYGVILTV (homo sapiens) [Peptide 131] |  |  |  |  | % Pass/fail control (HLA-A*0201): 257.0%
FVANAIIHL (homo sapiens) [Peptide 111, from CD52] | 0 | 0% | 0/2 | 0/2 | 
ILFAFVSSV (homo sapiens) [Peptide 25, from FLT3] | 0 | 0% | 1/2 | 0/2 | 
KIVEWDWKI (homo sapiens) [Peptide 109, from CD48] | 0.03 | 0.05% | 1/2 | 1/2 | 
KLGGDLLRA (homo sapiens) [Peptide 129, from CD18] | 0 | 0% | 0/2 | 0/2 | 
KLMSPKLYV (homo sapiens) [Peptide 55, from CD19] | 0.03 | 0.05% | 1/2 | 1/2 | 
LIQPFMFRL (homo sapiens) [Peptide 84, from MPO] | 0 | 0% | 0/5 | 0/4 | 
LLFLTPMEV (homo sapiens) [Peptide 108, from CD19] | 0.03 | 0.09% | 1/2 | 1/2 | 
LLLPLLLAL (homo sapiens) [Peptide 28, from CD7] | 0.01 | 0.19% | 1/2 | 1/2 | 
LLLTISLLV (homo sapiens) [Peptide 81, from CD52] | 0 | 0.03% | 0/2 | 1/2 | 
LLQRPGLQL (homo sapiens) [Peptide 126, from CD64] | 0.01 | 0.06% | 1/2 | 1/2 | 
LLWAGALAM (homo sapiens) [Peptide 86, from CD33] | 0.14 | 0.35% | 2/4 | 4/6 | 
LMGTLIAKV (homo sapiens) [Peptide 83, from HA-1] | 0 | 0% | 0/2 | 0/2 | 
LVAPRFLEV (homo sapiens) [Peptide 85, from CD50] | 0.13 | 0.30% | 1/4 | 2/5 | 
RLYQFLLDL (homo sapiens) [Peptide 66, from PU.1] | 0 | 0.03% | 0/2 | 1/2 | 
SLFLGILSV (homo sapiens) [Peptide 19, from CD20] |  |  |  |  | donors with positive cells ([3]; day 12): 5 of 6; median frequency of pentamer positive cells of CD8+ T cells ([3]; day 12): 0.19%; range of frequency of pentamer positive cells of CD8+ T cells ([3]; day 12): 0-0.31%; donors with pentamer positive cells ([3]; day 19): 6/6; median frequency of pentamer positive cells of CD8+ T cells ([3]; day 19, after re-stimulation): 0.57%; range of frequency of pentamer positive cells of CD8+ T cells ([3]; day 19, after re-stimulation): 0.12-2.79%; peptide concentration at which increase in frequency of activated T cells reached statistical significance [4]: 100 nM
SLWRRPFNV (homo sapiens) [Peptide 22, from MPO] | 0 | 0.09% | 0/2 | 1/2 | 
SMFHVTLKI (homo sapiens) [Peptide 128, from CLL-1] |  |  |  |  | % pent+/CD8+ (results d26) [1, 5]: 0.08%; Donors (results d26) [1, 5]: 1/3
SMLDDLRNV (homo sapiens) [Peptide 24, from CD18] | 0 | 0.05% | 0/2 | 1/2 | 
SVDPRIANV [139] (SLDPRIANV; homo sapiens) [Peptide 139, modified peptide, MPO] |  |  |  |  | % Pass/fail control (HLA-A*0201; level of binding relative to pass/fail control binder designated 100%): 231.5%
VLWHWLLRT (homo sapiens) [Peptide 105, from CD19] | 0 | 0.19% | 0/2 | 4/6 | 
YLGYTVTWL (homo sapiens) [Peptide 93, from CD11a] | 0.02 | 0.06% | 1/2 | 2/2 | 
YLHVALDLL (homo sapiens) [Peptide 107, from MPO] | 0 | 0.01% | 0/2 | 1/2 | 
